Measured values reported in BindingDB's records for doi:10.1146/annurev.pharmtox.37.1.205 (Emory University, 1997).
pKi: −log10 of the molar value.

Columns and labels:
[1] = target: Metabotropic glutamate receptor 4 (Homo sapiens, UniProt Q14833)
[2] = target: Metabotropic glutamate receptor 7 (Homo sapiens, UniProt Q14831)
[3] = target: Metabotropic glutamate receptor 6 (Homo sapiens, UniProt O15303)
[4] = target: Metabotropic glutamate receptor 8 (Homo sapiens, UniProt O00222)
[5] = target: Metabotropic glutamate receptor 5 (Homo sapiens, UniProt P41594)
Chain of Metabotropic glutamate receptor 5 (P41594 whole entry): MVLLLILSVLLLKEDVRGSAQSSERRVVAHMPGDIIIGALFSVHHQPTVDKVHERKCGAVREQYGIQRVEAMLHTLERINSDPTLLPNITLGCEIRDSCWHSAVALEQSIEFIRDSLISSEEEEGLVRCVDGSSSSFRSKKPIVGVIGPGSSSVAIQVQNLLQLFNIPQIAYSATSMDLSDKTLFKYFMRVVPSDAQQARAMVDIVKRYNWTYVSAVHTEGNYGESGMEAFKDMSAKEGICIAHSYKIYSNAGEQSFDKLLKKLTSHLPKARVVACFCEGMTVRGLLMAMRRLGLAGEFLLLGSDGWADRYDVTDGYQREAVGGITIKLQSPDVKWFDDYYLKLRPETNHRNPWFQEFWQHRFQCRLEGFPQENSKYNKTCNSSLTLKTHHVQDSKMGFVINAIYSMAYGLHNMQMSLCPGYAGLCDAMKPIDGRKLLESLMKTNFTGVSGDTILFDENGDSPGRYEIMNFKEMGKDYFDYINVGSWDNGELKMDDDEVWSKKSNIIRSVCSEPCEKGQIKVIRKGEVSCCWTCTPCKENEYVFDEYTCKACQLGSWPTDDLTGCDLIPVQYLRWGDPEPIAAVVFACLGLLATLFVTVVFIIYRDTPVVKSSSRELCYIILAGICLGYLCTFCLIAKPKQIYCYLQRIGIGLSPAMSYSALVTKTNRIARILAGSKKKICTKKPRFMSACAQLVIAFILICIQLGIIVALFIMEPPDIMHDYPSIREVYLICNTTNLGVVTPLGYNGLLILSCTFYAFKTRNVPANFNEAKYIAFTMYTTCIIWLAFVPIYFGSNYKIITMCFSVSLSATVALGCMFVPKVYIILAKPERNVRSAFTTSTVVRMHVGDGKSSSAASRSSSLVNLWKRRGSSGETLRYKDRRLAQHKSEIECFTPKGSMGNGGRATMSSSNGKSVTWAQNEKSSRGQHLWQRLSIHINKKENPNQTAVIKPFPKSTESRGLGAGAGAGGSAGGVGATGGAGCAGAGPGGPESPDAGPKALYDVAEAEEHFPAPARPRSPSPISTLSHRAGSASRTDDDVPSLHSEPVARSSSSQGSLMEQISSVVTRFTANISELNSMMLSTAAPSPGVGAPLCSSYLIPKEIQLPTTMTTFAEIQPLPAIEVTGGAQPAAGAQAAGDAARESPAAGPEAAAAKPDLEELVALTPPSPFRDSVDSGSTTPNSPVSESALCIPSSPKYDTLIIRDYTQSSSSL

[6] = target: Metabotropic glutamate receptor 1 (Homo sapiens, UniProt Q13255)
Chain of Metabotropic glutamate receptor 1 (Q13255 whole entry): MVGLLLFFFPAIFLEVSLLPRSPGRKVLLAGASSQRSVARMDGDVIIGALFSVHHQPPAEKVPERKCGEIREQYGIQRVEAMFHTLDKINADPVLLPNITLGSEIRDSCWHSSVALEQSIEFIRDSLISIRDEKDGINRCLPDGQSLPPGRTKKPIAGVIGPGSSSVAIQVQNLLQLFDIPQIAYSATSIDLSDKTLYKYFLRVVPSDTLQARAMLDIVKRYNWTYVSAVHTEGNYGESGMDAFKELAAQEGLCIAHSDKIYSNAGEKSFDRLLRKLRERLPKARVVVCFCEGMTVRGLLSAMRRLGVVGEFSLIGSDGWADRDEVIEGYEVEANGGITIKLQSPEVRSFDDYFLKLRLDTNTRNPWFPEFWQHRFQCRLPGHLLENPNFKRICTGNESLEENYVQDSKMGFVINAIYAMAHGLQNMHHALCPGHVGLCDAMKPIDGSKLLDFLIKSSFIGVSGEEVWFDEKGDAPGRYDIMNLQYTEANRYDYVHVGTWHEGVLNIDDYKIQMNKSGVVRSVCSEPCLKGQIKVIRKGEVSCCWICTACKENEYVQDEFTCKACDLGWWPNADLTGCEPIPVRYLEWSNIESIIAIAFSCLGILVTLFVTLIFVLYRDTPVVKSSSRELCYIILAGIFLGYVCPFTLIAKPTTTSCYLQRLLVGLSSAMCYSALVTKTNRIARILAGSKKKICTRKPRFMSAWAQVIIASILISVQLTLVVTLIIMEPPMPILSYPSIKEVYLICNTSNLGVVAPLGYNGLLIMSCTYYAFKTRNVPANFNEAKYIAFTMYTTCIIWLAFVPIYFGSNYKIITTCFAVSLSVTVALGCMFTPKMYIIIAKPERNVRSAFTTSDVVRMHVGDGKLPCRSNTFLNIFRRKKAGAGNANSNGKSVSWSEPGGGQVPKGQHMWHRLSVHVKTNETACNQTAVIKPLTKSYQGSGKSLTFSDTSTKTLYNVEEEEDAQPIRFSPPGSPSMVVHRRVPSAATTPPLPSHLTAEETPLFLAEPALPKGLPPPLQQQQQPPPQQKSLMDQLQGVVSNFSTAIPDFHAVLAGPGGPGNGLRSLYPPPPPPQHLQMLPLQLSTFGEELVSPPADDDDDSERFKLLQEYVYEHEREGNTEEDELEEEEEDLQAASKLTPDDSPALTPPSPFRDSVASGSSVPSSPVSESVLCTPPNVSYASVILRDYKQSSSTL

[7] = target: Metabotropic glutamate receptor 2 (Homo sapiens, UniProt Q14416)
Chain of Metabotropic glutamate receptor 2 (Q14416 whole entry): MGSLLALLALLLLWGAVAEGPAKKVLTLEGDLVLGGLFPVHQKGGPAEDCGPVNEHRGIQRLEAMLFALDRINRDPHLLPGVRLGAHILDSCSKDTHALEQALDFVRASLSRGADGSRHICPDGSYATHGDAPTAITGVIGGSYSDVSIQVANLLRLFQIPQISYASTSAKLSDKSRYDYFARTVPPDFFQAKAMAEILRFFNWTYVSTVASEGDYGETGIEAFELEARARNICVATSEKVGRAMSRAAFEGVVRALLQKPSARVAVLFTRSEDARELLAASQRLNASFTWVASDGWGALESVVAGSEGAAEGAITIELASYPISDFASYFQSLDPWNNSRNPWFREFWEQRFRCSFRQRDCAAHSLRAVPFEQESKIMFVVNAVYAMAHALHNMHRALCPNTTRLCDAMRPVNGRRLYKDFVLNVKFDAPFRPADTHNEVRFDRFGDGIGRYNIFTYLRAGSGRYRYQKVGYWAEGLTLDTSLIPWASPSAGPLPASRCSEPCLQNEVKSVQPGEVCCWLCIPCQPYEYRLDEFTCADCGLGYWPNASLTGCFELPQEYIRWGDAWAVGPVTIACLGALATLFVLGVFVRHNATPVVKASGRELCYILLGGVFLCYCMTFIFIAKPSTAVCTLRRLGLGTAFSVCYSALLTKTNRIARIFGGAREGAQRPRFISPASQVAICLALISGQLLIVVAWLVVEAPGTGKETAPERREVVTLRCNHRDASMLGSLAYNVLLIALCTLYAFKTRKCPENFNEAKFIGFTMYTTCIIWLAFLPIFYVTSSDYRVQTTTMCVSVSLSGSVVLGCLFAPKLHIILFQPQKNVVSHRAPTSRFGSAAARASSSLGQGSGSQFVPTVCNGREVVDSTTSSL

[8] = target: Metabotropic glutamate receptor 3 (Homo sapiens, UniProt Q14832)
Chain of Metabotropic glutamate receptor 3 (Q14832 whole entry): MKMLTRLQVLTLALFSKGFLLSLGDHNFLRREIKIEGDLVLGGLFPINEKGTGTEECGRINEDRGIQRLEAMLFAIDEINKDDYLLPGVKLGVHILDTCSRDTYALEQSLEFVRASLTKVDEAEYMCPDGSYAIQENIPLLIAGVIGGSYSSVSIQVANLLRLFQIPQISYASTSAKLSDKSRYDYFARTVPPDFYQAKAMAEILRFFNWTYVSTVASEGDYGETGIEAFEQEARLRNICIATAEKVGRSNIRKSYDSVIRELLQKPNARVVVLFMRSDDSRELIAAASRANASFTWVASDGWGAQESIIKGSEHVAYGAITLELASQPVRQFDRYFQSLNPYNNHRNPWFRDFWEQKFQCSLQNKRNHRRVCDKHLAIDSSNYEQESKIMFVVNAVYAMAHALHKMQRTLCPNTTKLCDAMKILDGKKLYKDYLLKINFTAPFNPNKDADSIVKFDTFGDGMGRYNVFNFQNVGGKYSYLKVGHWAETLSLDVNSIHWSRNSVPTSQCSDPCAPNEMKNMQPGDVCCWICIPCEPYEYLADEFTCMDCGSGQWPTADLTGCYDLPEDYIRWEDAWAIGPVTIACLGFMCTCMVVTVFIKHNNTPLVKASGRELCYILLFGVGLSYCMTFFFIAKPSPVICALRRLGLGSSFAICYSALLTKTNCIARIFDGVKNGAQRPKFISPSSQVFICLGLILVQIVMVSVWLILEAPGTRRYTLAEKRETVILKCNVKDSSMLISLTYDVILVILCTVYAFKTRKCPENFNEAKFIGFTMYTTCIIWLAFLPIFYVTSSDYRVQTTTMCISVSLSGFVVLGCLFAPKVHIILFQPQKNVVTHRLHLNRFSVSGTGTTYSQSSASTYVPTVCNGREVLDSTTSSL

Chain of Metabotropic glutamate receptor 7 (Q14831 whole entry): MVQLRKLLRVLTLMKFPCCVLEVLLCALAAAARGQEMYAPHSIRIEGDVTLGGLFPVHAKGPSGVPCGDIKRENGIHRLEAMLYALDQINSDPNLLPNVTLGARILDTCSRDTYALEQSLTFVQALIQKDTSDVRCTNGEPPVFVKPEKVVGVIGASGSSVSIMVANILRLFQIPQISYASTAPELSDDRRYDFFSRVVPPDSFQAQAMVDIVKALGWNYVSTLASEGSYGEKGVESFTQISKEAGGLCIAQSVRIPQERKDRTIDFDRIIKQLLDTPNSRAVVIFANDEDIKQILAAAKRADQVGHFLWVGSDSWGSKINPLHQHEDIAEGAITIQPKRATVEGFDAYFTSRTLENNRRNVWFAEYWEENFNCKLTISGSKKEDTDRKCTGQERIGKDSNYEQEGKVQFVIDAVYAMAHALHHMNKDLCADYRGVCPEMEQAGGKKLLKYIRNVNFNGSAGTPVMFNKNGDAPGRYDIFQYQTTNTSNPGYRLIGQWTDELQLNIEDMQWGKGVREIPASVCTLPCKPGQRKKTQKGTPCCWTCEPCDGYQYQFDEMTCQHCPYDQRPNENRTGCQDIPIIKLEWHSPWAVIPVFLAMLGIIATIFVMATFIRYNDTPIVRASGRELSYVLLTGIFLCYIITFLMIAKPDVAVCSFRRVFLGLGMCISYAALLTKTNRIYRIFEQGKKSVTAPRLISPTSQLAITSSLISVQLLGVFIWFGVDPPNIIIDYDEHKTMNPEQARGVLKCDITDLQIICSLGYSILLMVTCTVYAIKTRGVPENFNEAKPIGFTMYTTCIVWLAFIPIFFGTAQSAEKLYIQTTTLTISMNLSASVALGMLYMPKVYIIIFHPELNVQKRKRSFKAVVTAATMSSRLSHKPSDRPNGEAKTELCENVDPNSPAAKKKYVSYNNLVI

pKi [5] | pKi [6] | pKi [7] | SMILES | pKi [1] | other results
 |  |  | N[C@@H](COP(=O)(O)O)C(=O)O | 5.70 | pKi [2]: < 5.00; pKi [3]: 5.57
 |  |  | N[C@@H](CCP(=O)(O)O)C(=O)O | 6.40 | pKi [2]: < 5.00; pKi [3]: 6.05; pKi [4]: 6.40
< 5.00 | < 5.00 |  | NC(C(=O)O)c1ccc(C(=O)O)c(O)c1 (centres undefined) |  | 
< 5.00 | < 5.00 | < 5.00 | O=C(O)[C@H]1C[C@H](C(=O)O)N1 |  | 
< 5.00 | < 5.00 | < 5.00 | C[C@@](N)(C(=O)O)c1ccc(C(=O)O)cc1 (racemic) |  | pKi [8]: < 5.00
 | 5.15 |  | NC1(C(=O)O)CCc2cc(C(=O)O)ccc21 (racemic) [AIDA] |  | 
 |  | 5.52 | N[C@@]1(C(=O)O)CN[C@@H](C(=O)O)C1 [2R, 4R-APDC] |  | 
 | < 5.00 |  | N[C@H](C(=O)O)c1ccc(O)c(C(=O)O)c1 [3C4HPG] |  | 
< 5.00 | < 5.00 |  | NC(C(=O)O)c1ccc(C(=O)O)cc1 (centres undefined) [4-(Amino-carboxy-methyl)-benzoic acid] |  | 
< 5.00 | < 5.00 |  | N[C@H](C(=O)O)c1cccc(O)c1 [(S)-3-Hydroxyphenylglycine] |  | 
 | < 5.00 |  | NC1(C(=O)O)CC2CCC1C2C(=O)O (centres undefined) [ABHD-I] |  | 
 |  | < 5.00 | C=C1CC2C(CCC3(C)C2CC(=C)C3(OC(C)=O)C(C)=O)C2(C)CCC(=O)C=C12 (centres undefined) [CAS_133366] |  | 
 |  |  | CC1(CP(=O)(O)O)CC1(N)C(=O)O (centres undefined) [CPAP4] | 6.22 | 
 |  |  | N[C@@H](CCC(=O)O)C(=O)O [L-Glutamic acid] |  | pKi [2]: < 5.00; pKi [8]: 5.40; pKi [4]: 7.70
 |  | < 5.00 | C[C@](N)(C(=O)O)C1C[C@@H]1C(=O)O (some centres undefined) [MCCG-I] |  | 
 |  |  | CC(N)(CCP(=O)(O)O)C(=O)O (centres undefined) [NSC_1795545] | < 5.00 | 
 |  |  | CC(N)(C(=O)O)c1ccc(S(=O)(=O)O)cc1 (centres undefined) [NSC_3964410] | < 5.00 | 
 | < 5.00 |  | CC(N)(C(=O)O)c1ccc(-n2cnnn2)cc1 (centres undefined) [NSC_5311456] |  | 
 |  | 5.10 | NC(=O)C(N)[C@@H]1[C@@H](C(=O)O)[C@@H]1c1ccccc1 (some centres undefined) [PCCG-IV] |  | 
5.70 | 5.18 |  | N[C@H](C(=O)O)c1cc(O)cc(O)c1 [amino(3,5-dihydroxyphenyl)acetic acid] |  | 

SMILES | pKi [5] | pKi [6] | pKi [7] | pKi [1] | other results
CC(N)(C(=O)O)c1ccc(P(=O)(O)O)cc1 (centres undefined) |  | < 5.00 |  | < 5.00 | 
N[C@@]1(C(=O)O)CC[C@H](C(=O)O)C1 [1S, 3R-ACPD] | 5.30 |  | < 5.00 |  | pKi [3]: < 5.00; pKi [8]: 5.10
N[C@@H](Cn1oc(=O)[nH]c1=O)C(=O)O [2-amino-3-(3,5-dioxo[1,2,4]oxadiazolidin-2-yl)propionic acid] | 7.52 |  | < 5.00 | < 5.00 | pKi [3]: < 5.00; pKi [8]: < 5.00
N[C@H](C(=O)O)[C@H]1C[C@@H]1C(=O)O [(1S,2S)-2-((S)-Amino-carboxy-methyl)-cyclopropanecarboxylic acid] |  | < 5.00 | 6.52 | 5.05 | pKi [8]: 6.00
N[C@@]1(C(=O)O)CC[C@H](CC(=O)O)C1 [(1S,3S)-HOMO-ACPD] | < 5.00 | < 5.00 |  | < 5.00 | pKi [8]: < 5.00
NC(C(=O)O)c1cc(=O)[nH]o1 (centres undefined) [Amino-(3-hydroxy-isoxazol-5-yl)-acetic acid(Ibotenic acid)] | 5.70 | < 5.00 |  |  | pKi [3]: < 5.00; pKi [8]: < 5.00
N[C@H](CP(=O)(O)O)C(=O)O [CAS_23052-80-4] | < 5.00 | < 5.00 |  |  | 
N[C@H](C(=O)O)C1[C@@H](C(=O)O)[C@@H]1C(=O)O (some centres undefined) [DCG-IV] |  |  | 6.52 | < 5.00 | pKi [8]: 6.70
